The text below walks through data of patent US20060276464A1, “Diarylsulfone sulfonamides and use thereof” (Wyeth, priority 2005, published 2006).

Each structure is given as a SMILES string. Structures can show the parent of a compound that is named as a salt.

Experiment [1] deals with T1, SFRP-1 (Homo sapiens, UniProt Q8N474).
T1 sequence (Q8N474 32-314): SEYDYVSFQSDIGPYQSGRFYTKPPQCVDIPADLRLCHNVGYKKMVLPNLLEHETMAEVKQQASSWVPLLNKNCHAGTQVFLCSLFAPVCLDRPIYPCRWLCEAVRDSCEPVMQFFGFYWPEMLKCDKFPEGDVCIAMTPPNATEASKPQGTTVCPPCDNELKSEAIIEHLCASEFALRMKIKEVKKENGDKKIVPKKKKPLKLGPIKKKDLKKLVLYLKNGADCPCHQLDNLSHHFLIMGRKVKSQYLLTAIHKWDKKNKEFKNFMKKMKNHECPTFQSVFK
Put plainly: Fluorescence polarization binding assay (competitive displacement of a probe compound from SFRP-1).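 Note: test compound competes with a fluorescent probe held by SFRP-1, seen as a drop in probe anisotropy after incubation in darkness, with anisotropy as function of rising compound dose.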 To be noted: fluorescence anisotropy, 45 nM SFRP-1, 20 nM probe.

Experiment [2] deals with T1, SFRP-1. The experiment is described as follows: Cell-based assay for in vitro measurement of SFRP-1/SARP2 antagonist activity (U2OS cells co-transfected with 16x TCF-tk-Luciferase reporter, Wnt and hSFRP-1).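 For all read-outs here: U2OS cells co-transfected with a TCF-tk luciferase reporter, a Wnt vector, hSFRP-1 or empty vector and CMV-βgal, luciferase luminescence read in cell lysates alongside βgal activity.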 To be noted: for fold induction at 10 µM: U2OS, read-out: Fold Induction with SFRP-1, U2OS cells, single dose 10 μM, luciferase reporter, fold induction over SFRP-1 control. Background: A reporter such as luciferase makes a cellular process visible.

In general, IC50 refers to the concentration that inhibits the measured activity by half. A high value points to weaker potency. As to `O=S(=O)(NC1CCN(Cc2ccc(C(F)(F)F)cc2)CC1)c1cc(S(=O)(=O)c2ccccc2)ccc1C(F)(F)F` [Example 749, 5-(phenylsulfonyl)-2-(trifluoromethyl)-N-{1-[4-(trifluoromethyl)benzyl]piperidin-4-yl}benzenesulfonamide], on SFRP-1 [1], the half-inhibitory concentration (IC50) was determined as 3000 nM. Further, the fold induction at 10 µM at SFRP-1 [2] amounted to 1.7.

The EC50 is the midpoint of the concentration-response curve. Lower therefore signals greater potency. Consider `N#CCN1CCC(NS(=O)(=O)c2cc(S(=O)(=O)c3ccccc3)ccc2C(F)(F)F)CC1` [Example 750, N-[1-(cyanomethyl)piperidin-4-yl]-5-(phenylsulfonyl)-2-(trifluoromethyl)benzenesulfonamide], for which the IC50 at SFRP-1 [1] is 200 nM. Besides, on SFRP-1 [2], the 50% effective concentration (EC50) was 937 nM and the fold induction at 10 µM was 4.2.

The molecule `O=C(CN1CCC(NS(=O)(=O)c2cc(S(=O)(=O)c3ccccc3)ccc2C(F)(F)F)CC1)c1ccccc1` [Example 751, N-[1-(2-oxo-2-phenylethyl)piperidin-4-yl]-5-(phenylsulfonyl)-2-(trifluoromethyl)benzenesulfonamide] yielded an IC50 on SFRP-1 [1] of 300 nM. At SFRP-1 [2], the concentration for a half-maximal effect (EC50) worked out at 4850 nM and the fold induction at 10 µM is 3.1.

For the molecule `N#CCCNS(=O)(=O)c1cc(S(=O)(=O)c2cccc(Cl)c2)ccc1C(F)(F)F` [Example 752, 5-[(3-chlorophenyl)sulfonyl]-N-(2-cyanoethyl)-2-(trifluoromethyl)benzenesulfonamide], at SFRP-1 [1], the IC50 is 400 nM. For the same molecule, on SFRP-1 [2], the EC50 was 1090 nM and the fold induction at 10 µM was found to be 3.8.

For the molecule `CC(C)(C)c1ccc(C(=O)N2CCC(NS(=O)(=O)c3cc(S(=O)(=O)c4cccc(Cl)c4)ccc3C(F)(F)F)CC2)cc1` [Example 753, N-[1-(4-tert-butylbenzoyl)piperidin-4-yl]-5-[(3-chlorophenyl)sulfonyl]-2-(trifluoromethyl)benzenesulfonamide], the half-maximal inhibitory concentration (IC50) on SFRP-1 [1] stood at 700 nM. In addition, the fold induction at 10 µM on SFRP-1 [2] stood at 3.8.

With `O=S(=O)(NC1CCOCC1)c1cc(S(=O)(=O)c2cccc(Cl)c2)ccc1C(F)(F)F` [Example 754, 5-[(3-chlorophenyl)sulfonyl]-N-(tetrahydro-2H-pyran-4-yl)-2-(trifluoromethyl)benzenesulfonamide], the IC50 at SFRP-1 [1] came to 400 nM. For the same molecule, at SFRP-1 [2], it took 1980 nM to reach a half-maximal effect (EC50) and the fold induction at 10 µM stood at 2.5.

Turning to `O=S(=O)(NCCc1cccnc1)c1cc(S(=O)(=O)c2cccc(Cl)c2)ccc1C(F)(F)F` [Example 755, 5-[(3-chlorophenyl)sulfonyl]-N-(2-pyridin-3-ylethyl)-2-(trifluoromethyl)benzenesulfonamide], the IC50 at SFRP-1 [1] amounted to 160 nM. At SFRP-1 [2], the response was half-maximal at 1430 nM (EC50) and the fold induction at 10 µM stood at 3.8.

`O=S(=O)(NCC(O)c1ccccn1)c1cc(S(=O)(=O)c2ccccc2)ccc1C(F)(F)F` (stereo not drawn) [Example 757, N-(2-hydroxy-2-pyridin-2-ylethyl)-5-(phenylsulfonyl)-2-(trifluoromethyl)benzenesulfonamide] had a concentration for half-maximal inhibition (IC50) at SFRP-1 [1] of 1100 nM. For the same molecule, on SFRP-1 [2], the fold induction at 10 µM is 3.1.

For `O=C(c1ccccc1OC(F)(F)F)N1CCC(NS(=O)(=O)c2cc(S(=O)(=O)c3ccccc3)ccc2C(F)(F)F)CC1` [Example 758, 5-(phenylsulfonyl)-N-{1-[2-(trifluoromethoxy)benzoyl]piperidin-4-yl}-2-(trifluoromethyl)benzenesulfonamide], on SFRP-1 [1], the IC50 stood at 300 nM. Besides, at SFRP-1 [2], the midpoint of the response, the EC50, lay at 582 nM and the fold induction at 10 µM amounted to 3.4.

On to `CC(C)(C)c1ccc(NC(=O)N2CCC(NS(=O)(=O)c3cc(S(=O)(=O)c4ccccc4)ccc3C(F)(F)F)CC2)cc1` [Example 759, N-(4-tert-butylphenyl)-4-({[5-(phenylsulfonyl)-2-(trifluoromethyl)phenyl]sulfonyl}amino)piperidine-1-carboxamide], for which the IC50 at SFRP-1 [1] turned out to be 1600 nM. Besides, the fold induction at 10 µM at SFRP-1 [2] was found to be 3.5.

Consider `CC(C)(C)c1ccc(C(=O)N2CCC(NS(=O)(=O)c3cc(S(=O)(=O)c4ccccc4)ccc3C(F)(F)F)C2)cc1` (stereo not drawn) [Example 761, N-[1-(4-tert-butylbenzoyl)pyrrolidin-3-yl]-5-(phenylsulfonyl)-2-(trifluoromethyl)benzenesulfonamide], for which the IC50 at SFRP-1 [1] is 600 nM. Further, on SFRP-1 [2], the EC50 stood at 1570 nM and the fold induction at 10 µM turned out to be 3.2.

On to `NCCNS(=O)(=O)c1cc(S(=O)(=O)c2ccccc2)ccc1C(F)(F)F` [Example 762, N-(2-Aminoethyl)-5-(phenylsulfonyl)-2-(trifluoromethyl)benzenesulfonamide hydrochloride], for which the half-maximal inhibitory concentration (IC50) at SFRP-1 [1] stood at 2100 nM. Further, on SFRP-1 [2], the fold induction at 10 µM came out at 2.2.

As to `O=S(=O)(NC1CCN(c2ccc(C(F)(F)F)cc2)CC1)c1cc(S(=O)(=O)c2ccccc2)ccc1C(F)(F)F` [Example 763, 5-(phenylsulfonyl)-2-(trifluoromethyl)-N-{1-[4-(trifluoromethyl)phenyl]piperidin-4-yl}benzenesulfonamide], the IC50 on SFRP-1 [1] was found to be 1700 nM. Moreover, the fold induction at 10 µM on SFRP-1 [2] was found to be 2.7.

The molecule `CC(C)(C)c1ccc(C(=O)N2CCC(NS(=O)(=O)c3cc(S(=O)(=O)c4cccc(O)c4)ccc3C(F)(F)F)CC2)cc1` [Example 764, N-[1-(4-tert-butylbenzoyl)piperidin-4-yl]-5-[(3-hydroxyphenyl)sulfonyl]-2-(trifluoromethyl)benzenesulfonamide] displayed an IC50 at SFRP-1 [1] of 270 nM. On SFRP-1 [2], a half-maximal response (EC50) required 463 nM and the fold induction at 10 µM was 0.6.

Regarding `O=S(=O)(NCC1CCOCC1)c1cc(S(=O)(=O)c2ccccc2)ccc1C(F)(F)F` [Example 765, 5-(phenylsulfonyl)-N-(tetrahydro-2H-pyran-4-ylmethyl)-2-(trifluoromethyl)benzenesulfonamide], the concentration for half-maximal inhibition (IC50) on SFRP-1 [1] is 190 nM. Also, on SFRP-1 [2], the response was half-maximal at 754 nM (EC50) and the fold induction at 10 µM was determined as 3.7.

With `O=S(=O)(NCCN1CCOCC1)c1cc(S(=O)(=O)c2ccccc2)ccc1C(F)(F)F` [Example 766, N-(2-morpholin-4-ylethyl)-5-(phenylsulfonyl)-2-(trifluoromethyl)benzenesulfonamide], the IC50 on SFRP-1 [1] came out at 400 nM. Moreover, at SFRP-1 [2], the EC50 came to 1220 nM and the fold induction at 10 µM amounted to 2.7.

On SFRP-1 [1], `O=S(=O)(NCCCN1CCOCC1)c1cc(S(=O)(=O)c2ccccc2)ccc1C(F)(F)F` [Example 767, N-(3-morpholin-4-ylpropyl)-5-(phenylsulfonyl)-2-(trifluoromethyl)benzenesulfonamide] displayed a concentration for half-maximal inhibition (IC50) of 900 nM. The fold induction at 10 µM on SFRP-1 [2] came to 3.6.

As for `COCCCNS(=O)(=O)c1cc(S(=O)(=O)c2ccccc2)ccc1C(F)(F)F` [Example 768, N-(3-methoxypropyl)-5-(phenylsulfonyl)-2-(trifluoromethyl)benzenesulfonamide], the IC50 on SFRP-1 [1] turned out to be 400 nM. For the same molecule, at SFRP-1 [2], the response was half-maximal at 1130 nM (EC50) and the fold induction at 10 µM worked out at 3.4.

With `O=C(NCCNS(=O)(=O)c1cc(S(=O)(=O)c2ccccc2)ccc1C(F)(F)F)c1ccccc1` [Example 770, N-[2-({[5-(Phenylsulfonyl)-2-(trifluoromethyl)phenyl]sulfonyl}amino)ethyl]benzamide], the half-inhibitory concentration (IC50) at SFRP-1 [1] is 2700 nM. Also, the fold induction at 10 µM at SFRP-1 [2] amounted to 1.7.

Molecule `O=S(=O)(NCCc1ccncc1)c1cc(S(=O)(=O)c2ccccc2)ccc1C(F)(F)F` [Example 771, 5-(phenylsulfonyl)-N-(2-pyridin-4-ylethyl)-2-(trifluoromethyl)benzenesulfonamide] had a half-maximal inhibitory concentration (IC50) on SFRP-1 [1] of 80 nM. Further, at SFRP-1 [2], the concentration giving a half-maximal response (EC50) was 733 nM and the fold induction at 10 µM was 3.5.

For `O=S(=O)(NC1Cc2ccccc2C1)c1cc(S(=O)(=O)c2ccccc2)ccc1C(F)(F)F` [Example 772, N-(2,3-dihydro-1H-inden-2-yl)-5-(phenylsulfonyl)-2-(trifluoromethyl)benzenesulfonamide], at SFRP-1 [1], the IC50 was 80 nM. Moreover, the fold induction at 10 µM at SFRP-1 [2] turned out to be 1.2.

For the molecule `O=S(=O)(NC[C@H](O)c1ccccc1)c1cc(S(=O)(=O)c2ccccc2)ccc1C(F)(F)F` [Example 773, N-[(2R)-2-hydroxy-2-phenylethyl]-5-(phenylsulfonyl)-2-(trifluoromethyl)benzenesulfonamide], the IC50 on SFRP-1 [1] is 1900 nM. Also, at SFRP-1 [2], the half-maximal effective concentration (EC50) is 1300 nM and the fold induction at 10 µM was determined as 1.2.

As to `O=S(=O)(NC[C@@H](O)c1ccccc1)c1cc(S(=O)(=O)c2ccccc2)ccc1C(F)(F)F` [Example 774, N-[(2S)-2-hydroxy-2-phenylethyl]-5-(phenylsulfonyl)-2-(trifluoromethyl)benzenesulfonamide], on SFRP-1 [1], the concentration for half-maximal inhibition (IC50) turned out to be 60 nM. On SFRP-1 [2], the 50% effective concentration (EC50) came to 973 nM and the fold induction at 10 µM amounted to 1.3.

Consider `O=C(NCCNS(=O)(=O)c1cc(S(=O)(=O)c2ccccc2)ccc1C(F)(F)F)c1ccncc1` [Example 783, N-[2-({[5-(Phenylsulfonyl)-2-(trifluoromethyl)phenyl]sulfonyl}amino)ethyl]isonicotinamide], for which, at SFRP-1 [1], the IC50 stood at 700 nM. The fold induction at 10 µM at SFRP-1 [2] was 3.2.

Turning to `CC[C@H](CO)NS(=O)(=O)c1cc(S(=O)(=O)c2ccccc2)ccc1C(F)(F)F` [Example 784, N-[(1R)-1-(hydroxymethyl)propyl]-5-(phenylsulfonyl)-2-(trifluoromethyl)benzenesulfonamide], at SFRP-1 [1], the half-inhibitory concentration (IC50) was found to be 3000 nM. In addition, on SFRP-1 [2], the fold induction at 10 µM amounted to 3.

At SFRP-1 [1], `COc1cccc(S(=O)(=O)c2ccc(C(F)(F)F)c(S(=O)(=O)NCCO)c2)c1` [Example 785, N-(2-hydroxyethyl)-5-[(3-methoxyphenyl)sulfonyl]-2-(trifluoromethyl)benzenesulfonamide] gave a concentration for half-maximal inhibition (IC50) of 1100 nM. The fold induction at 10 µM on SFRP-1 [2] was 2.9.
